Molecules are shown by their SMILES.

Assay [1] has as its system autoinducer production by V. cholerae N16961. Briefly: microbe, parasite or virus in culture. The following applies: Vibrio cholerae, read-out: AI Inhibition IC50, BB170 (ai1−ai2+).
The target in assay [2] is MTAN activity in V. cholerae N16961 cells (Vibrio cholerae serotype O1, UniProt Q9KPI8).
A further assay concerns the target human MTAP (Homo sapiens, UniProt Q13126). Particulars: read-out: affinity for purified human MTAP; cited from earlier work.
Another assay deals with T1, VcMTAN (Vibrio cholerae serotype O1, UniProt Q9KPI8).
T1 construct: residues 1-230 for each monomer of VcMTAN in the asymmetric unit; The largest part of the N-terminal 6-His tag and the last C-terminal residue, 231; made in house; host or cells: E. coli BL21 Star (pBAD-DEST49)
T1 sequence (Q9KPI8 1-231): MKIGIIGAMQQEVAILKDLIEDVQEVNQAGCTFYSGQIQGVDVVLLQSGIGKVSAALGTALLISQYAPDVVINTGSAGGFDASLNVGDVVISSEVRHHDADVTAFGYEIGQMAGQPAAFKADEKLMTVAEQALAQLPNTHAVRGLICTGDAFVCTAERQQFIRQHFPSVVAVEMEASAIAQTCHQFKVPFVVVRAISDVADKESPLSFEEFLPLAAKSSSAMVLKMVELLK
Briefly: Inhibition of purified MTAN activity (xanthine oxidase-coupled assay). Type of assay: biochemical. The following applies: ratio of dissociation constants of the inhibitor pair.

A further assay concerns the target EcMTAN (Escherichia coli, UniProt P0AF12). The following applies: purified EcMTAN; cited from earlier work.

human MTAP, sequence (Q13126 whole entry): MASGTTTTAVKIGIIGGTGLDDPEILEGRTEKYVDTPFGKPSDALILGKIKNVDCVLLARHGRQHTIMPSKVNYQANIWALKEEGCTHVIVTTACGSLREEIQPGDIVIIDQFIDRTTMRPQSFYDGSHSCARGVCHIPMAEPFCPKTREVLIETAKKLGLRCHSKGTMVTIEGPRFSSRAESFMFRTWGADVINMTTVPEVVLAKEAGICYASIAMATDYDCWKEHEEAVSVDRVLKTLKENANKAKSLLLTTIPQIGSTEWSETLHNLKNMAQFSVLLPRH
EcMTAN, sequence (P0AF12 whole entry): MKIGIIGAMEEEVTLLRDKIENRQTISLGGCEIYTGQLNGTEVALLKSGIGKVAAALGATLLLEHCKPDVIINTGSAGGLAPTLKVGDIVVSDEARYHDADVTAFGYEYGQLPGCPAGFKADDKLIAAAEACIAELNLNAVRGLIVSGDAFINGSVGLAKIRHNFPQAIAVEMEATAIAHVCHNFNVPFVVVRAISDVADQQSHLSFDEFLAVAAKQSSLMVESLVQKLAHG
Protocol for VcMTAN: Inhibition of purified MTAN activity. […] Reactions were monitored for 2 hours at 25° C. on a Cary 300 Bio UV-Vis spectrophotometer. Inhibition constants were obtained by fitting the data to the following expression for competitive inhibition using KaleidaGraph 3.6 (Synergy Software, Reading, Pa.):
where νs′ and νs are steady state rates in the presence, and absence of inhibitor, respectively; Km is the Michaelis constant for substrate MTA which was obtained as described above; [S] and [I] are the concentrations of MTA and inhibitor, respectively. If the concentration of inhibitor is smaller than 10-fold concentration of enzymes, the following correction was then applied:

As usually defined, the IC50 is the concentration that gives 50% inhibition. Regarding `CCCCSCC1CN(Cc2c[nH]c3c(N)ncnc23)CC1O` (stereo not shown) [BuT-DADMe-ImmA, 5′-butylthio-(BuT-)DADMe-ImmucillinA], the half-inhibitory concentration (IC50) in assay [1] worked out at 1.4 nM. Consider `CCSCC1CN(Cc2c[nH]c3c(N)ncnc23)CC1O` (stereo not shown) [EtT-DADMe-ImmA, 5′-ethylthio-(EtT-) DADMe-ImmucillinA], for which, in assay [1], the 50% inhibitory concentration (IC50) turned out to be 11 nM. For the molecule `CSCC1CN(Cc2c[nH]c3c(N)ncnc23)CC1O` (stereo not shown) [MT-DADMe-ImmA, 5′-methylthio-(MT-) DADMe-ImmucillinA], in assay [2], the “increase of cellular IC50 above Ki* (diffusion barrier)” value is reported as around 500 fold. Besides, the IC50 in assay [1] worked out at 0.94 nM. The Kd at human MTAP is 0.086 nM.

Turning to `CSC[C@H]1N[C@@H](c2c[nH]c3c(N)ncnc23)[C@H](O)[C@@H]1O` [MT-ImmA, 5′-methylthio-ImmucillinA], the KImmA/KDADMe-ImmA on VcMTAN turned out to be 135. With `Nc1ncnc2c(CN3CC(O)C(CSc4ccc(Cl)cc4)C3)c[nH]c12` (stereo not shown) [para-chloro-phenylthio-DADMe-ImmA], on EcMTAN, the Km/Ki is recorded as ~10^8.

Source of the values: patent publication US20110190265A1, “METHODS AND COMPOSITIONS FOR TREATING BACTERIAL INFECTIONS BY INHIBITING QUORUM SENSING” (priority 2008, published 2011).
